Earlier results, collected in patent publication US20160022811A1 (Teva Pharmaceutical Industries Ltd., priority 2013, published 2016).

Tested on: relapsing-remitting MS (RRMS)
Details: registration trials, comparison with placebo

Substance: L-glutamic acid polymer with L-alanine, L-lysine, L-tyrosine, acetate (salt) [glatiramer acetate]
- reduction of relapse rate: about one third
